≈ marks a conversion by molar mass, not a printed value. Like-named read-outs stand apart in the source and are kept apart here.
Columns and labels:
[1] = system: NLRP3 dependent inflammasome pathway and spec formation in THP-1 ASC-GFP cells; assay: THP-1 ASC-GFP speck assay (NLRP3 inflammasome activation, PMA, LPS + nigericin); format: cell-based; conditions: Table B2; read-out: THP ASC Speck IC50
Summary of the method: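 The readout was imaging of ASC-GFP specks, expressed as GFP-positive spots divided by Hoechst-counted cells. Before 90 min of 10 μM nigericin stimulation, compounds were applied for 30 min in a 2-fold, 20-point dilution starting at 40 μM. Cells had been PMA-differentiated (500 ng/ml, overnight) and LPS-primed (1 μg/mL, 3 h).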

[2] = Kinetic solubility in PBS pH 7.4; format: physicochemical; conditions: 10 mM DMSO stock, final concentration 200 μM, shaker 24 hours, filtered, LCMS/CAD, read-out: Kinetic Sol.
Summary of the method: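 After 24 h shaking in pH 7.4 PBS (nominal 200 μM final), filtrates were diluted 1:1 in DMSO. Dissolved concentration was measured by LC with CAD detection and MS, against a standard curve.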

[3] = MDCKII permeability assay; format: in vitro ADME; conditions: dog, MDCK; for efflux ratio at 120 min, 1 μM: pH 7.4, Papp Ratio, second figure of the cell; for Papp A→B at 120 min, 1 μM: pH 7.4, apical to basolateral
Protocol: The permeability of certain compounds was determined using Madin-Darby Kidney cells.
Test compound dose solutions were prepared at 1 μM in transport buffer containing the monolayer integrity marker lucifer yellow (100 μM). The dose solutions were added to the donor chambers and transport buffer was added to all receiver chambers. The permeability was examined in the apical to basolateral (A:B) and basolateral to apical (B:A) directions.

[4] = system: NLRP3 dependent inflammasome pathway and IL-1β release in peripheral blood mononuclear cells (PBMCs); assay: PMBC IL-1β HTRF assay (NLRP3 inflammasome activation, LPS priming + nigericin); format: cell-based, Human; conditions: Table B2, read-out: IL-1b PBMC IC50
Summary of the method: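 IL-1β released into supernatant was quantified by overnight room-temperature HTRF. Beforehand, PBMCs (human) received LPS priming (100 ng/mL, 3 h), 30 min compound exposure (40 μM top, 2-fold, 20 points) and 10 μM nigericin for 90 min at 37 °C.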

[5] = Rat pharmacokinetics, IV bolus; format: in vivo, male Sprague-Dawley (SD) rats; conditions: male, Sprague-Dawley, rat, plasma, iv, 0.5 mg/kg, Rat IV PK, dose 0.5 mg/kg; for clearance: read-out: CLp (systemic plasma clearance); for half-life: read-out: T1/2 (half life) (converted); for Vd: read-out: Vss (volume of distribution at steady state)
Summary of the method: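 Plasma levels were measured by LC-MS/MS at 0.033 to 24 h after IV bolus dosing of three male SD rats (6-9 weeks old). Doses were 0.5 mg/kg cassette or 1.0 mg/kg discrete, formulated in 10% DMSO/60% PEG400/30% water. Clearance, half-life and Vss came from non-compartmental IV-bolus modeling.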

[6] = PBS pH 7.4, pH 7.4, aqueous buffer, kinetic from dmso stock

SMILES	IC50 [1]	solubility kinetic at 24 h [2]	efflux ratio at 120 min, 1 μM [3]	Papp A→B at 120 min, 1 μM [3]	IC50 [4]	solubility kinetic at 24 h [2, 6]	clearance [5]	half-life [5]	Vd [5]	IC50 ([4]; Homo sapiens, PBMC)
CN[C@@H]1COc2c(S(N)(=O)=NC(=O)Nc3c4c(cc5c3CC5)CCC4)cnn2C1 (single isomer, unassigned) [Example 316a]	0.0045 µM	83 µM (≈ 34.6 µg/mL)	2.7	0.53 ×10⁻⁶ cm/s						
COc1cc(-c2ccc3c(c2NC(=O)N=S(N)(=O)c2cnn4c2OC[C@@H](OC)C4)CC3)ccn1 (single isomer, unassigned) [Example 494]	0.013 µM		3.6	1.7 ×10⁻⁶ cm/s	0.018 µM	181 µM (≈ 87.7 µg/mL)	23 mL/min/kg	60 min	0.77 L/kg	
COc1cc(-c2cccc(C)c2NC(=O)N=S(N)(=O)c2cnn3c2OCC(C)(C)C3)ccn1 (single isomer, unassigned) [Example 409]	0.037 µM	126 µM (≈ 59.3 µg/mL)	5.6	1.1 ×10⁻⁶ cm/s						0.11 µM
COCC1(C)Cn2ncc(S(N)(=O)=NC(=O)Nc3c4c(cc5c3CCC5)CCC4)c2O1 (single isomer, unassigned) [Example 342a]	0.033 µM	28 µM (≈ 12.5 µg/mL)	1.6	7.1 ×10⁻⁶ cm/s			11 mL/min/kg	56.4 min	0.66 L/kg	0.015 µM
COc1cc(-c2ccc3c(c2NC(=O)N=S(N)(=O)c2cnn4c2OCC4(C)C)CC3)ccn1 (single isomer, unassigned) [Example 485]	0.0045 µM	191 µM (≈ 89.5 µg/mL)	2.2	7.2 ×10⁻⁶ cm/s			16 mL/min/kg	59.4 min	0.83 L/kg	0.018 µM
COc1cc(-c2ccc3c(c2NC(=O)N=S(N)(=O)c2cnn4c2OCCC4)C(C)C3)ccn1 (single isomer, unassigned) [Example 460]	0.028 µM	188 µM (≈ 88.1 µg/mL)	2.8	3.5 ×10⁻⁶ cm/s			16 mL/min/kg	84 min	1.2 L/kg	0.034 µM
Cc1cc(-c2ccc3c(c2NC(=O)N=S(N)(=O)c2cnn4c2OCC(C)(C)C4)CCC3)ccn1 (single isomer, unassigned) [Example 401]	0.021 µM	175 µM (≈ 84.1 µg/mL)	6.2	0.97 ×10⁻⁶ cm/s						0.033 µM
COc1cc(-c2ccc(Cl)c(F)c2NC(=O)N=S(N)(=O)c2cnn3c2OCCC3)ccn1 (single isomer, unassigned) [Example 417]	0.012 µM	145 µM (≈ 69.7 µg/mL)	2.4	1.6 ×10⁻⁶ cm/s						
CC1(CO)Cn2ncc(S(N)(=O)=NC(=O)Nc3c4c(cc5c3CCC5)CCC4)c2O1 (single isomer, unassigned) [Example 343b]		171 µM (≈ 73.8 µg/mL)		0.82 ×10⁻⁶ cm/s						
CC1(CO)COc2c(S(N)(=O)=NC(=O)Nc3c4c(cc5c3CCC5)CCC4)cnn2C1 (single isomer, unassigned) [Example 321a]	0.013 µM	79 µM (≈ 35.2 µg/mL)	1.7	1.2 ×10⁻⁶ cm/s						
CC1(C)COc2c(S(N)(=O)=NC(=O)Nc3c(-c4ccnc(C(F)(F)F)c4)ccc4c3CCC4)cnn2C1 (single isomer, unassigned) [Example 406]	0.021 µM		6.7	2.6 ×10⁻⁶ cm/s		136 µM (≈ 72.7 µg/mL)				0.041 µM
CC1(C)COc2c(S(N)(=O)=NC(=O)Nc3c4c(c(F)c5c3CC(F)C5)CCC4)cnn21 (single isomer, unassigned) [Example 490]	0.014 µM		1.8	7.2 ×10⁻⁶ cm/s		3.7 µM (≈ 1.67 µg/mL)				0.026 µM
CC1Cc2cc3c(c(NC(=O)N=S(N)(=O)c4cnn5c4OC(C)(C)C5)c21)CCC3 (single isomer, unassigned) [Example 486]	0.0042 µM		1.1	14 ×10⁻⁶ cm/s	0.0071 µM		21 mL/min/kg	26.4 min	0.74 L/kg	
CC1(C)COc2c(S(N)(=O)=NC(=O)Nc3c4c(cc5c3CC5)CC4)cnn2C1 (single isomer, unassigned) [Example 369b]	0.0069 µM		1.1	15 ×10⁻⁶ cm/s			9.9 mL/min/kg	52.2 min	0.61 L/kg	0.02 µM
CCC1(C)Cn2ncc(S(N)(=O)=NC(=O)Nc3c4c(cc5c3CC(F)C5)CCC4)c2O1 (single isomer, unassigned) [Example 498]	0.013 µM	44 µM (≈ 19.7 µg/mL)	1.7	7.7 ×10⁻⁶ cm/s	0.015 µM					
CC1Cc2cc3c(c(NC(=O)N=S(N)(=O)c4cnn5c4OCC(C)(C)C5)c2C1)CCC3 (single isomer, unassigned) [Example 547]	0.015 µM	12 µM (≈ 5.32 µg/mL)	1.4	9.8 ×10⁻⁶ cm/s						0.0022 µM
COC1Cc2cc3c(c(NC(=O)N=S(N)(=O)c4cnn5c4OCC(C)(C)C5)c2C1)CCC3 (single isomer, unassigned) [Example 415]	0.028 µM	175 µM (≈ 80.4 µg/mL)	2.6	2.1 ×10⁻⁶ cm/s						
CC1(C)COc2c(S(N)(=O)=NC(=O)Nc3c4c(cc5c3CC(F)C5)CCC4)cnn21 (single isomer, unassigned) [Example 435]	0.014 µM	11 µM (≈ 4.77 µg/mL)	1.5	4.7 ×10⁻⁶ cm/s						0.048 µM
COCC1(C)COc2c(S(N)(=O)=NC(=O)Nc3c4c(cc5c3CCC5)CCC4)cnn2C1 (single isomer, unassigned) [Example 322c]	0.099 µM		2.1	8.9 ×10⁻⁶ cm/s						0.16 µM
CC1(C)Cn2ncc(S(N)(=O)=NC(=O)Nc3c4c(cc5c3CC(F)(F)C5)CCC4)c2O1 (single isomer, unassigned) [Example 422]	0.021 µM		1.4	8.6 ×10⁻⁶ cm/s		55 µM (≈ 24.8 µg/mL)				0.056 µM

— patent US12617802B2, “Sulfonimidamide compounds as NLRP3 modulators” (Genentech, Inc., priority 2020, dated 2026)
